Here are results for 4 compounds from patent publication US4876282A, “1-Phenylalkylamines as selective serotonin uptake inhibitors” (Eli Lilly and Company, priority 1987, dated 1989).

Structures are written as SMILES. Structures can show the parent of a compound that is named as a salt.

The test relates to 5HT uptake. Kind of test: Inhibition of 5HT uptake in vitro (synaptosomal uptake of 3H-serotonin, rat cerebral cortex). The class given is biochemical, Sprague-Dawley rat. As to conditions: rat cortical synaptosomes, 37° C., 5 min, 50 nM 3H-5HT; tested as oxalate salt; read-out: IC50 5HT (concentration needed to inhibit 50% of serotonin uptake). On the procedure: This general procedure is set forth by Wong et al., in Drug Development Research 6:397-403 (1985).
Male Sprague-Dawley rats (110-150 g) from Harlan Industries (Cumberland, Ind.) were fed Purina Chow ad libitum for at least 3 days before being used in the studies. Rats were killed by decapitation. Whole brains were removed and dissected. Cerebral cortex was homogenized in 9 volumes of a medium containing 0.32 M sucrose and 10 mM glucose. Crude synaptosomal preparations were isolated after differential centrifugation at 1,000 g for 10 min. and 17,000 g for 28 min. The final pellets were suspended in the same medium and kept in ice until use within the same day.
Synaptosomal uptake of ^3 H-serotonin(^3 H-5-hydroxytryptamine, ^3 H-5HT) was determined as follows. Cortical synaptosomes (equivalent to 1 mg of protein) were incubated at 37° C. for 5 min in 1 ml of Krebsbicarbonate medium containing also 10 mM glucose, 0.1 mM iproniazid, 1 mM ascorbic acid, 0.17 mM EDTA and 50 nM ^3 H-5HT. The reaction mixture was immediately diluted with 2 ml of ice-chilled Krebs-bicarbonatebuffer and filtered under vacuum with a cell harvester (Brandel, Gaithersburg, Md). Filters were rinsed twice with approximately 5 ml of ice-chilled 0.9% saline and were transferred to a counting vial containing 10 ml of scintillation fluid (PCS, Amersham, Arlington Heights, Il). Radioactivity was measured by a liquid scintillation spectrophotometer. Accumulation of ^3 H-5HT at 4° C. represented the background and was subtracted from all samples.
The numbers in parentheses represent percent inhibition at 1000 nM.
For the compound `NC(CCCc1cccc2ccccc12)c1ccccc1` (stereo not shown) [Example 1, 1-Phenyl-4-(1-napthalenyl)butylaminium oxalate], the IC50 is 240 nM.

Take `CN(C)C(CCCc1cccc2ccccc12)c1ccccc1` (stereo not shown) [Example 2, N,N-Dimethyl-1-phenyl-4-(1-naphthalenyl)butylaminium oxalate]: the IC50 turned out to be 30 nM.

For `CN(C)C(CCc1cccc2ccccc12)c1ccccc1` (stereo not shown) [Example 4, N,N-Dimethyl-1-phenyl-3-(1-naphthalenyl)propylaminium oxalate], the IC50 was found to be 240 nM.

As to `CNC(CCCc1cccc2ccccc12)c1ccccc1` (stereo not shown) [Example 3, N-Methyl-1-phenyl-4-(1-naphthalenyl)butyl-aminium oxalate], the IC50 came to 70 nM.
